Reference: ChEMBL document CHEMBL1131882, “Unsymmetrical cyclic ureas as HIV-1 protease inhibitors: novel biaryl indazoles as P2/P2' substituents” (Bioorg Med Chem Lett, 1999)

Assays:
[1] = tested on: Human immunodeficiency virus 1; experiment: Inhibitory activity against Ritonavir resistant virus mutant strain; assay type: functional
[2] = target: Human immunodeficiency virus type 1 protease (Human immunodeficiency virus 1) (UniProt Q72874); experiment: Inhibitory activity against HIV -1 Protease in whole cell assay
[3] = target: Human immunodeficiency virus type 1 protease (Human immunodeficiency virus 1, UniProt Q72874); experiment: Binding affinity for HIV -1 Protease

Row | SMILES | IC90 [1] | IC90 [2] | Ki [3]
1 | Nc1cccc(CN2C(=O)N(Cc3ccc4[nH]ncc4c3)[C@H](Cc3ccccc3)[C@H](O)[C@@H](O)[C@H]2Cc2ccccc2)c1 | 825 nM | 11 nM | 
2 | Nc1cccc(CN2C(=O)N(Cc3ccc4[nH]nc(-c5ccc(C(F)(F)F)cc5)c4c3)[C@H](Cc3ccccc3)[C@H](O)[C@@H](O)[C@H]2Cc2ccccc2)c1 |  | 255 nM | 0.25 nM
3 | Nc1cccc(CN2C(=O)N(Cc3ccc4[nH]nc(-c5ccc(F)cc5)c4c3)[C@H](Cc3ccccc3)[C@H](O)[C@@H](O)[C@H]2Cc2ccccc2)c1 | > 5000 nM | 39 nM | 0.3 nM
4 | Nc1cccc(CN2C(=O)N(Cc3ccc4[nH]nc(-c5cccc(N)c5)c4c3)[C@H](Cc3ccccc3)[C@H](O)[C@@H](O)[C@H]2Cc2ccccc2)c1 | 1300 nM | 30 nM | 0.09 nM
5 | Nc1cccc(CN2C(=O)N(Cc3ccc4[nH]nc(-c5cccs5)c4c3)[C@H](Cc3ccccc3)[C@H](O)[C@@H](O)[C@H]2Cc2ccccc2)c1 | > 5000 nM | 31 nM | 0.18 nM
6 | Nc1cccc(CN2C(=O)N(Cc3ccc4[nH]nc(-c5ccsc5)c4c3)[C@H](Cc3ccccc3)[C@H](O)[C@@H](O)[C@H]2Cc2ccccc2)c1 | > 5000 nM | 32 nM | 0.13 nM
7 | COc1cccc(-c2[nH]nc3ccc(CN4C(=O)N(Cc5cccc(N)c5)[C@H](Cc5ccccc5)[C@H](O)[C@@H](O)[C@H]4Cc4ccccc4)cc23)c1 | 3140 nM | 33 nM | 
8 | COc1cccc(-c2n[nH]c3ccc(CN4C(=O)N(Cc5cccc(N)c5)[C@H](Cc5ccccc5)[C@H](O)[C@@H](O)[C@H]4Cc4ccccc4)cc23)c1 |  |  | 0.24 nM
9 | Nc1cccc(CN2C(=O)N(Cc3ccc4[nH]nc(-c5cccc(C(F)(F)F)c5)c4c3)[C@H](Cc3ccccc3)[C@H](O)[C@@H](O)[C@H]2Cc2ccccc2)c1 |  | 39 nM | 0.61 nM
10 | COc1ccc(-c2[nH]nc3ccc(CN4C(=O)N(Cc5cccc(N)c5)[C@H](Cc5ccccc5)[C@H](O)[C@@H](O)[C@H]4Cc4ccccc4)cc23)cc1 | 4190 nM | 14 nM | 0.26 nM
11 | Nc1cccc(CN2C(=O)N(Cc3ccc4[nH]nc(-c5cc[nH]n5)c4c3)[C@H](Cc3ccccc3)[C@H](O)[C@@H](O)[C@H]2Cc2ccccc2)c1 | 525 nM | 108 nM | 0.058 nM
12 | CC(C)c1nc(CN(C)C(=O)N[C@H](C(=O)N[C@@H](Cc2ccccc2)C[C@H](O)[C@H](Cc2ccccc2)NC(=O)OCc2cncs2)C(C)C)cs1 [RITONAVIR] | 4500 nM |  | 
